Measurements published in patent US20260028354A1, “TETRAHYDRONAPHTHALENE DERIVATIVES AS ESTROGEN RECEPTOR DEGRADERS” (REGENT OF THE UNIVERSITY OF MICHIGAN, priority 2022, published 2026).

Target: ER (Homo sapiens (Human), UniProt P03372)
Sequence (P03372 whole entry): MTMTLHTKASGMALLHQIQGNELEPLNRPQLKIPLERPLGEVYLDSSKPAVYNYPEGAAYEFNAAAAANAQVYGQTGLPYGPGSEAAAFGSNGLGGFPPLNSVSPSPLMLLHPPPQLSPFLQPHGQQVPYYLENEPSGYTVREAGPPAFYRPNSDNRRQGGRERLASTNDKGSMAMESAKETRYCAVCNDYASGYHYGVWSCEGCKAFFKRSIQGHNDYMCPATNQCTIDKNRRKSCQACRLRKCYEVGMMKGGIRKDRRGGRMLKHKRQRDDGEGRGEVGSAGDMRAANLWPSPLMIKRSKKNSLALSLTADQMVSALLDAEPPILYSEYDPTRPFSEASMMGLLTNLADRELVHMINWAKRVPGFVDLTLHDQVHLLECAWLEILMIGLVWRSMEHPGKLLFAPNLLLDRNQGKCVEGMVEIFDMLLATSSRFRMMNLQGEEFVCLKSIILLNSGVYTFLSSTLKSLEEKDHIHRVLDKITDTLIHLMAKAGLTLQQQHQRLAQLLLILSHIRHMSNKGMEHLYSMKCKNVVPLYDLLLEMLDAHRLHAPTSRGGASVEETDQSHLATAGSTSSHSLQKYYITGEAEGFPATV
Assay: In-cell western blot analysis of ER for "B" compounds
Type: cell-based
Settings: 16 hours, read-out: ICW DC50
Procedure: R^T 2h, gentle shaking. Negative control: cells plus secondary antibodies (no primary antibodies); e, wash x 4 with PBS+0.05-0.1% Tween 20, gentel shaking; f, anti-rabbit-680 and anti-mouse-800 (both 1:1000 in LiCor block+0.05% Tween20, R^T 1h, gentle shaking, no light. LI-COR: 0.2% to reduce background; g, wash×4 with PBS+0.05% Tween 20, gental shaking; h, add 100 μL or 25 μL of PBS to each well and read on CLX plate reader. The relative ER percentage in treated cells were obtained by comparing the values of treated wells to those in untreated and DMSO-treated wells as 100%.
`O=C1CCC(N2Cc3cc4c(cc3C2=O)OC[C@@H]2CN(CC(=O)N3CCC5(CC3)CCN(c3ncc([C@@H]6c7ccc(O)cc7CC[C@@H]6c6ccccc6)cn3)CC5)CCN42)C(=O)N1` (mixture of isomers) [Compound B149, 3-((S)-3-(2-(9-(5-(cis-6-hydroxy-2-phenyl-1,2,3,4-tetrahydronaphthalen-1-yl)pyrimidin-2-yl)-3,9-diazaspiro[5.5]undecan-3-yl)-2-oxoethyl)-8-oxo-1,2,3,4,4a,5,8,10-octahydro-9H-pyrazino[1′,2′: 4,5][1,4]oxazino[2,3-f]isoindol-9-yl)piperidine-2,6-dione] gave a DC50 of 10 to 100 nM.
`CN(C(=O)c1ccc2c(c1)OC[C@H]1CN(C(=O)CN3CCC4(CC3)CN(c3ccc(C5c6ccc(O)cc6CCC5c5ccccc5)cc3)C4)CCN21)C1CCC(=O)NC1=O` (stereo in doubt) [Compound B223, (4aR)-N-(2,6-dioxopiperidin-3-yl)-3-(2-(2-(4-((1S,2R)-6-hydroxy-2-phenyl-1,2,3,4-tetrahydronaphthalen-1-yl)phenyl)-2,7-diazaspiro[3.5]nonan-7-yl)acetyl)-N-methyl-1,2,3,4,4a,5-hexahydrobenzo[b]pyrazino[1,2-d][1,4]oxazine-8-carboxamide] showed a DC50 of 10 to 100 nM.
`CN1C[C@@H]2CN(C(=O)CN3CC4(CCN(c5ccc([C@@H]6c7ccc(O)cc7CC[C@@H]6c6ccccc6)cc5)CC4)C3)CCN2c2cc3c(cc21)C(=O)N(C1CCC(=O)NC1=O)C3` (stereo partly drawn) [Compound B162, 3-((R)-3-(2-(7-(4-((1R,2S)-6-hydroxy-2-phenyl-1,2,3,4-tetrahydronaphthalen-1-yl)phenyl)-2,7-diazaspiro[3.5]nonan-2-yl)acetyl)-6-methyl-8-oxo-2,3,4,4a,5,6,8,10-octahydropyrazino[1,2-a]pyrrolo[3,4-g]quinoxalin-9(1H)-yl)piperidine-2,6-dione] gave a DC50 of 10 to 100 nM.
With `O=C1CCC(N2Cc3c(ccc4c3OCC43CCN(C(=O)CN4CCC5(C4)CN(c4ccc([C@@H]6c7ccc(O)cc7CC[C@@H]6c6ccccc6)cc4)C5)CC3)C2=O)C(=O)N1` (stereo partly drawn) [Compound B169, 3-(1′-(2-(2-(4-((1R,2S)-6-hydroxy-2-phenyl-1,2,3,4-tetrahydronaphthalen-1-yl)phenyl)-2,6-diazaspiro[3.4]octan-6-yl)acetyl)-6-oxo-6,8-dihydro-2H,7H-spiro[furo[2,3-e]isoindole-3,4′-piperidin]-7-yl)piperidine-2,6-dione] the DC50 was < 10 nM.
In the case of `O=C1CCC(N2Cc3c(ccc4c3OC[C@H]3CN(CC5CC6CN(c7ccc([C@@H]8c9ccc(O)cc9CC[C@@H]8c8ccccc8)cc7)CC6C5)CCN43)C2=O)C(=O)N1` (stereo partly drawn) [Compound B320, 3-((5aR)-7-(((3aRS,6aSR)-2-(4-((1R,2S)-6-hydroxy-2-phenyl-1,2,3,4-tetrahydronaphthalen-1-yl)phenyl)octahydrocyclopenta[c]pyrrol-5-yl)methyl)-1-oxo-1,3,5,5a,6,7,8,9-octahydro-2H-pyrazino[1′,2′:4,5][1,4]oxazino[2,3-c]isoindol-2-yl)piperidine-2,6-dione], the DC50 is reported as > 100 nM.
With `O=C1CCC(N2Cc3c(ccc4c3OC[C@H]3CN(C[C@H]5CC[C@H](Nc6ccc([C@@H]7c8ccc(O)cc8CC[C@@H]7c7ccccc7)cc6)CC5)CCN43)C2=O)C(=O)N1` (stereo partly drawn) [Compound B322, 3-((R)-7-(((1R,4R)-4-((4-((1R,2S)-6-hydroxy-2-phenyl-1,2,3,4-tetrahydronaphthalen-1-yl)phenyl)amino)cyclohexyl)methyl)-1-oxo-1,3,5,5a,6,7,8,9-octahydro-2H-pyrazino[1′,2′:4,5][1,4]oxazino[2,3-e]isoindol-2-yl)piperidine-2,6-dione] the DC50 was < 10 nM.
In the case of `CN(CC1CC2(CCN(c3ccc([C@@H]4c5ccc(O)cc5CC[C@@H]4c4ccccc4)cc3)CC2)C1)[C@H]1C[C@H]2COc3cc4c(cc3N2C1)C(=O)N(C1CCC(=O)NC1=O)C4=O` (stereo partly drawn) [Compound B331, (2S,3aS)-8-(2,6-dioxopiperidin-3-yl)-2-(((7-(4-((1R,2S)-6-hydroxy-2-phenyl-1,2,3,4-tetrahydronaphthalen-1-yl)phenyl)-7-azaspiro[3.5]nonan-2-yl)methyl)(methyl)amino)-2,3,3a,4-tetrahydro-1H,7H-pyrrolo[1′,2′:4,5][1,4]oxazino[2,3-f]isoindole-7,9(8H)-dione], the DC50 is reported as > 100 nM.
For `O=C1CC[C@H](N2Cc3c(ccc4c3OC[C@H]3CN(CC5CCC6(CN(c7ccc([C@@H]8c9ccc(O)cc9CC[C@@H]8c8ccccc8)cc7)C6)OC5)CCN43)C2=O)C(=O)N1` (stereo partly drawn) [Compound B348, (3S)-3-((5aR)-7-((2-(4-((1R,2S)-6-hydroxy-2-phenyl-1,2,3,4-tetrahydronaphthalen-1-yl)phenyl)-5-oxa-2-azaspiro[3.5]nonan-7-yl)methyl)-1-oxo-1,3,5,5a,6,7,8,9-octahydro-2H-pyrazino[1′,2′:4,5][1,4]oxazino[2,3-e]isoindol-2-yl)piperidine-2,6-dione], the DC50 was < 10 nM.
Compound `O=C1CC[C@H](N2Cc3cc4c(cc3C2=O)OC[C@@H]2CN(CC3CCC5(CN(c6ccc([C@@H]7c8ccc(O)cc8CC[C@@H]7c7ccccc7)cc6)C5)OC3)CCN42)C(=O)N1` (stereo partly drawn) [Compound B349, (3S)-3-((4aS)-3-((2-(4-((1R,2S)-6-hydroxy-2-phenyl-1,2,3,4-tetrahydronaphthalen-1-yl)phenyl)-5-oxa-2-azaspiro[3.5]nonan-7-yl)methyl)-8-oxo-1,2,3,4,4a,5,8,10-octahydro-9H-pyrazino[1′,2′:4,5][1,4]oxazino[2,3-f]isoindol-9-yl)piperidine-2,6-dione] has a DC50 of 10 to 100 nM.
`O=C1CC[C@H](N2Cc3c(ccc4c3OC[C@H]3CN(C[C@H]5CC[C@H](Nc6ccc([C@@H]7c8ccc(O)cc8CC[C@@H]7c7ccccc7)cc6)CC5)CCN43)C2=O)C(=O)N1` [Compound B353, (S)-3-((R)-7-(((1R,4R)-4-((4-((1R,2S)-6-hydroxy-2-phenyl-1,2,3,4-tetrahydronaphthalen-1-yl)phenyl)amino)cyclohexyl)methyl)-1-oxo-1,3,5,5a,6,7,8,9-octahydro-2H-pyrazino[1′,2′:4,5][1,4]oxazino[2,3-e]isoindol-2-yl)piperidine-2,6-dione] gave a DC50 of 10 to 100 nM.
`O=C1CC[C@H](N2Cc3cc4c(cc3C2=O)OC[C@@H]2CN(C[C@H]3CC[C@@H](Nc5ccc([C@@H]6c7ccc(O)cc7CC[C@@H]6c6ccccc6)cc5)CC3)CCN42)C(=O)N1` [Compound B354, (S)-3-((S)-3-(((1R,4S)-4-((4-((1R,2S)-6-hydroxy-2-phenyl-1,2,3,4-tetrahydronaphthalen-1-yl)phenyl)amino)cyclohexyl)methyl)-8-oxo-1,2,3,4,4a,5,8,10-octahydro-9H-pyrazino[1′,2′:4,5][1,4]oxazino[2,3-f]isoindol-9-yl)piperidine-2,6-dione] gave a DC50 of 10 to 100 nM.
With `O=C1CCC(Nc2ccc(C3CCN(CC4CCN(c5ccc([C@@H]6c7ccc(O)cc7CC[C@@H]6c6ccccc6)cc5)CC4)CC3)cc2F)C(=O)N1` (stereo partly drawn) [Compound B378, 3-((2-fluoro-4-(1-((1-(4-((1R,2S)-6-hydroxy-2-phenyl-1,2,3,4-tetrahydronaphthalen-1-yl)phenyl)piperidin-4-yl)methyl)piperidin-4-yl)phenyl)amino)piperidine-2,6-dione] the DC50 was > 100 nM.
For `O=C1CCC(Nc2ccc(C3CCN(CC4CC5(CCN(c6ccc([C@@H]7c8ccc(O)cc8CC[C@@H]7c7ccccc7)cc6)CC5)C4)CC3)cc2F)C(=O)N1` (stereo partly drawn) [Compound B379, 3-((2-fluoro-4-(1-((7-(4-((1R,2S)-6-hydroxy-2-phenyl-1,2,3,4-tetrahydronaphthalen-1-yl)phenyl)-7-azaspiro[3.5]nonan-2-yl)methyl)piperidin-4-yl)phenyl)amino)piperidine-2,6-dione], the DC50 was > 100 nM.
In the case of `O=C1CCC(Nc2ccc(N3CCN(CC4CCN(c5ccc([C@@H]6c7ccc(O)cc7CC[C@@H]6c6ccccc6)cc5)CC4)CC3)c(F)c2)C(=O)N1` (stereo partly drawn) [Compound B380, 3-((3-fluoro-4-(4-((1-(4-((1R,2S)-6-hydroxy-2-phenyl-1,2,3,4-tetrahydronaphthalen-1-yl)phenyl)piperidin-4-yl)methyl)piperazin-1-yl)phenyl)amino)piperidine-2,6-dione], the DC50 is reported as > 100 nM.
In the case of `O=C1CCC(Nc2ccc(N3CCN(CC4CC5(CCN(c6ccc([C@@H]7c8ccc(O)cc8CC[C@@H]7c7ccccc7)cc6)CC5)C4)CC3)c(F)c2)C(=O)N1` (stereo partly drawn) [Compound B381, 3-((3-fluoro-4-(4-((7-(4-((1R,2S)-6-hydroxy-2-phenyl-1,2,3,4-tetrahydronaphthalen-1-yl)phenyl)-7-azaspiro[3.5]nonan-2-yl)methyl)piperazin-1-yl)phenyl)amino)piperidine-2,6-dione], the DC50 is reported as > 100 nM.
For `O=C1CCC(Nc2ccc(N3CCN(CC4CCC5(CCN(c6ccc([C@@H]7c8ccc(O)cc8CC[C@@H]7c7ccccc7)cc6)CC5)OC4)CC3)c(F)c2)C(=O)N1` (stereo partly drawn) [Compound B382, 3-((3-fluoro-4-(4-((9-(4-((1R,2S)-6-hydroxy-2-phenyl-1,2,3,4-tetrahydronaphthalen-1-yl)phenyl)-1-oxa-9-azaspiro[5.5]undecan-3-yl)methyl)piperazin-1-yl)phenyl)amino)piperidine-2,6-dione], the DC50 was > 100 nM.

Tested on: not listed separately
Assay: Cell growth assay (WST-8) for "B" compounds
Type: cell-based
Settings: T47D, T47D cell line; read-out: Cell growth Inhibition in T47D cell line IC50
Outline: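 Cells seeded at 1500/well overnight, then exposed to compounds for 4 days. 10% WST-8 added for 2.5 h at 37 °C and absorbance read at 450 nm. Growth given as absorbance relative to vehicle control, from three repeats.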
In the case of `CN(C(=O)c1ccc2c(c1)OC[C@H]1CN(C(=O)CN3CCC4(CC3)CN(c3ccc(C5c6ccc(O)cc6CCC5c5ccccc5)cc3)C4)CCN21)C1CCC(=O)NC1=O` (stereo in doubt) [Compound B223, (4aR)-N-(2,6-dioxopiperidin-3-yl)-3-(2-(2-(4-((1S,2R)-6-hydroxy-2-phenyl-1,2,3,4-tetrahydronaphthalen-1-yl)phenyl)-2,7-diazaspiro[3.5]nonan-7-yl)acetyl)-N-methyl-1,2,3,4,4a,5-hexahydrobenzo[b]pyrazino[1,2-d][1,4]oxazine-8-carboxamide], the IC50 is reported as > 10 nM.

Same assay, conditions: T47D; read-out: Cell growth Inhibition in T47D cell line IC50
With `O=C1CCC(N2Cc3cc4c(cc3C2=O)OC[C@@H]2CN(CC(=O)N3CCC5(CC3)CCN(c3ncc([C@@H]6c7ccc(O)cc7CC[C@@H]6c6ccccc6)cn3)CC5)CCN42)C(=O)N1` (mixture of isomers) [Compound B149, 3-((S)-3-(2-(9-(5-(cis-6-hydroxy-2-phenyl-1,2,3,4-tetrahydronaphthalen-1-yl)pyrimidin-2-yl)-3,9-diazaspiro[5.5]undecan-3-yl)-2-oxoethyl)-8-oxo-1,2,3,4,4a,5,8,10-octahydro-9H-pyrazino[1′,2′: 4,5][1,4]oxazino[2,3-f]isoindol-9-yl)piperidine-2,6-dione] the IC50 was < 1 nM.
